From ChEMBL document CHEMBL1201862, “PubChem BioAssay data set” (2004)
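Values below derive from 48-hour exposures of cells grown in 96-well plates, with endpoints linearly interpolated between the two concentrations bracketing the appropriate inhibition level. Abbreviation: GI50, concentration required for 50% inhibition of growth.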 Activity calls are given as the source filed them. Rule as the data show it: active = GI50 up to about 1.1 µM and inactive = higher.

Key:
Assay in all cases: NCI anticancer screen, dose series, 48 h
COLO 205 = test system: COLO 205
OVCAR-5 = test system: OVCAR-5
BT-549 = test system: BT-549
NCI-H226 = test system: NCI-H226
OVCAR-8 = test system: OVCAR-8
M14 = test system: M14
HCT-116 = test system: HCT-116
RXF 393 = test system: RXF 393
NCI-H522 = test system: NCI-H522
Hs-578T = test system: Hs-578T
LOX IMVI = test system: LOX IMVI
SR = test system: SR
UACC-62 = test system: UACC-62
TK-10 = test system: TK-10
EKVX = test system: EKVX
KM12 = test system: KM12
ACHN = test system: ACHN
A498 = test system: A498
NCI-H460 = test system: NCI-H460
SF-295 = test system: SF-295

Measured: GI50

O=C(CN1CCN(C(=O)OCc2ccccc2)CCN(CC(=O)N2CCCCC2)CCN(C(=O)OCc2ccccc2)CC1)N1CCCCC1
inactive: COLO 205 11.9 µM | OVCAR-5 19.6 µM | BT-549 23.1 µM | NCI-H226 5.82 µM | OVCAR-8 8.61 µM | M14 10.1 µM | HCT-116 4.88 µM | RXF 393 11.9 µM | NCI-H522 5.52 µM | Hs-578T 14.3 µM | LOX IMVI 14.5 µM | SR 3.3 µM | UACC-62 18.1 µM | TK-10 11.5 µM | EKVX 24.9 µM | KM12 17.7 µM | ACHN 18.1 µM | A498 16.7 µM | NCI-H460 12.4 µM | SF-295 18.7 µM

C=C1C(=O)O[C@@H]2C(=O)[C@@H](C)[C@@H]3C=CC(=O)[C@@]3(C)[C@@H](OC(=O)/C(C)=C\C)[C@H]12 [MULTISTATIN]
active: COLO 205 0.237 µM | BT-549 0.689 µM | HCT-116 0.238 µM | RXF 393 0.378 µM | NCI-H522 0.0883 µM | LOX IMVI 0.555 µM | SR 0.223 µM | TK-10 0.538 µM | EKVX 1.1 µM | ACHN 0.212 µM
inactive: OVCAR-5 2.22 µM | NCI-H226 2.38 µM | OVCAR-8 1.73 µM | M14 1.56 µM | Hs-578T 6.44 µM | UACC-62 1.25 µM | KM12 2.3 µM | A498 1.69 µM | NCI-H460 2.21 µM | SF-295 13 µM
